Test [1] addresses human 20S proteasome (hs20S), trypsin-like activity mediated by the β2 subunit (Homo sapiens, UniProt P49720+Q99436). It is filed as biochemical. The note with it: Boc-LRR-AMC, Table 2.
The subject of test [2] is HL-60 leukemia cell line. Nature of the test: NCI dose-dependent growth inhibition, HL-60. Format: cell-based. The note with it: 48-h exposure, optical density, data provided by NCI.
For test [3], the system named is K-562 leukemia cell line. Nature of the test: NCI dose-dependent growth inhibition, K-562. To be noted: 48-h exposure, optical density, data provided by NCI. It is filed as cell-based.
In test [4] the test system is MOLT-4 leukemia cell line. Nature of the test: NCI dose-dependent growth inhibition, MOLT-4. Format: cell-based. The note with it: 48-h exposure, optical density, data provided by NCI.
The test system of test [5] is RPMI-8226 leukemia cell line. Nature of the test: NCI dose-dependent growth inhibition, RPMI-8226. The note with it: 48-h exposure, optical density, data provided by NCI. Format: cell-based.
Test [6] relates to SR leukemia cell line. Nature of the test: NCI dose-dependent growth inhibition, SR. To be noted: 48-h exposure, optical density, data provided by NCI. It is filed as cell-based.

As to syringolin B methyl ester [Compound 1], in test [1], the “Trypsin-Like Activity kin/Ki” value is 326 M⁻¹ s⁻¹. The concentration for 50% growth inhibition (GI50) in test [2] is 5.41 µM; in test [3], 6.12 µM; in test [4], 4.73 µM; in test [5], 3.97 µM; in test [6] it was 5.13 µM.
